Reference: ChEMBL document CHEMBL1158635, “Antitrypanosomal alkaloids from Polyalthia suaveolens (Annonaceae): their effects on three selected glycolytic enzymes of Trypanosoma brucei” (Bioorg Med Chem Lett, 2010)
Active and inactive are the calls of the source. No cut-off for these calls is given here.

Key:
[1] = tested on: Trypanosoma brucei brucei; assay: Antitrypanosomal activity against Trypanosoma brucei brucei 427 bloodstream form after 72 hrs by LILIT method; type: functional; conditions: for EC50: Trypanosoma brucei, 427, 72 h, read-out: ED50 (the source's name)
[2] = Inhibition of Trypanosoma brucei GAPDH expressed in Escherichia coli
[3] = target: Glyceraldehyde-3-phosphate dehydrogenase (Oryctolagus cuniculus) (UniProt P46406); assay: Inhibition of rabbit muscle GAPDH at 3000 uM
Chain of Glyceraldehyde-3-phosphate dehydrogenase (Oryctolagus cuniculus) (P46406 whole entry, looked up): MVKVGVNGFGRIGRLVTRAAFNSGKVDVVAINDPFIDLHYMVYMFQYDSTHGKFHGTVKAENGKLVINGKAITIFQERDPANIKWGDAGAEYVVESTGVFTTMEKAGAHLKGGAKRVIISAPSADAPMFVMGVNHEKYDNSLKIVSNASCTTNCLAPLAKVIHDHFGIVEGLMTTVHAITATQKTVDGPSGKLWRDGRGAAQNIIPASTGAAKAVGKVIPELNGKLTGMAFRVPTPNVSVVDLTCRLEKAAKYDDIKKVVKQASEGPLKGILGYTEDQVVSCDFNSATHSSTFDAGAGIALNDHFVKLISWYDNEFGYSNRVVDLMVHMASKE

[4] = target: T1, ATP-dependent 6-phosphofructokinase, muscle type (Oryctolagus cuniculus) (UniProt P00511); assay: Inhibition of rabbit muscle PFK at 170 uM
T1 sequence (whole entry): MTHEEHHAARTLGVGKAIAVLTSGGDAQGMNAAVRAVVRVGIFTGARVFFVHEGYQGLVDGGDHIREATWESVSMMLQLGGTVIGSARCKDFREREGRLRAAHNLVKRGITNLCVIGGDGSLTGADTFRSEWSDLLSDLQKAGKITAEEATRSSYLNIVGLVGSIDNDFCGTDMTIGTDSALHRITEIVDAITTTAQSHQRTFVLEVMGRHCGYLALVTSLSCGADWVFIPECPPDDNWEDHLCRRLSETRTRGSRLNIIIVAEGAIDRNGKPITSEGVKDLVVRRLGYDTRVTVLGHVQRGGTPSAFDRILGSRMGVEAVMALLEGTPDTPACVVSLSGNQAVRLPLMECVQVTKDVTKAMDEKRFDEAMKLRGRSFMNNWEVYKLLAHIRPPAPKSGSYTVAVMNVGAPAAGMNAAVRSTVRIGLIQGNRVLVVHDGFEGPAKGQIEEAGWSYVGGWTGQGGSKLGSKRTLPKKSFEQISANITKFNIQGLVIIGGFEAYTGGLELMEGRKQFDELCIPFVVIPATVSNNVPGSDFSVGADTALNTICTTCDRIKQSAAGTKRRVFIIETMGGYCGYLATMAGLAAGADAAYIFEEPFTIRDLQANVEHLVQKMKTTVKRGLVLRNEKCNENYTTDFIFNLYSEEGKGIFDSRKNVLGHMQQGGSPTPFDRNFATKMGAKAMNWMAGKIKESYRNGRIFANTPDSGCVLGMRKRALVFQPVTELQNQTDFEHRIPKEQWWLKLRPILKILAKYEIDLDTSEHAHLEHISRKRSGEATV

[5] = target: T2, ATP-dependent 6-phosphofructokinase (Trypanosoma brucei, UniProt O15648); assay: Inhibition of Trypanosoma brucei PFK expressed in Escherichia coli
T2 sequence (O15648 whole entry): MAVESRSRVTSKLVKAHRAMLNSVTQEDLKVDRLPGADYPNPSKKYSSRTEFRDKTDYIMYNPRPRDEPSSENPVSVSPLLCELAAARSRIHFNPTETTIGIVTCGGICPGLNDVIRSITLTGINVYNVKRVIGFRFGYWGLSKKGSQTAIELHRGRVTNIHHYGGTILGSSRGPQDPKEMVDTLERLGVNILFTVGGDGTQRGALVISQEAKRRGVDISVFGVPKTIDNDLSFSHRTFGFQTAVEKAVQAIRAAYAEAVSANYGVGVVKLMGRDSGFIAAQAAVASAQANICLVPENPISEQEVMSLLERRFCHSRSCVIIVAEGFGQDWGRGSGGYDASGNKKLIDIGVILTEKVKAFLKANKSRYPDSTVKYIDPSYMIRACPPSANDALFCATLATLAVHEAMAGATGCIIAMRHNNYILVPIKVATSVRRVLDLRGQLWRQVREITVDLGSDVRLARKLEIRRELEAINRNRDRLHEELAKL

[6] = target: T3, Fructose-bisphosphate aldolase A (Oryctolagus cuniculus, UniProt P00883); assay: Inhibition of rabbit muscle aldolase
T3 sequence (P00883 whole entry): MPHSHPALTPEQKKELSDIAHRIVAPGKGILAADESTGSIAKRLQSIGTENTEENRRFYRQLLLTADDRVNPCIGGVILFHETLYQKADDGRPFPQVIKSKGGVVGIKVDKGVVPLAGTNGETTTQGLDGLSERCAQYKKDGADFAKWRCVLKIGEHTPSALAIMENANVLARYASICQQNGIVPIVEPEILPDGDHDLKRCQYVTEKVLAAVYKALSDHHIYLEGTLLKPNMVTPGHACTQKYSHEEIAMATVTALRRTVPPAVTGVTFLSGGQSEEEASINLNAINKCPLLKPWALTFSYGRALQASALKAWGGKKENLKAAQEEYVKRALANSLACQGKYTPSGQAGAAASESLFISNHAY

[7] = tested on: Trypanosoma brucei; assay: Inhibition of Trypanosoma brucei aldolase expressed in Escherichia coli at 100 uM
[8] = target: T2, ATP-dependent 6-phosphofructokinase; assay: Competitive reversible inhibition of Trypanosoma brucei PFK expressed in Escherichia coli using fructose-6-phosphate by spectrophotometry analysis
[9] = tested on: MRC5; assay: Cytotoxicity against human MRC5 cells after 72 hrs by Alamar blue staining; type: cell-based; conditions: mrc5, 72 h
[10] = target: T4, ATP-dependent 6-phosphofructokinase (Trypanosoma brucei) (UniProt O15648); assay: Ratio of Ki/Km for Trypanosoma brucei PFK expressed in Escherichia coli using fructose-6-phosphate by spectrophotometry analysis
T4 sequence (whole entry): T2 sequence (O15648 whole entry)

[11] = target: Glyceraldehyde-3-phosphate dehydrogenase (Oryctolagus cuniculus) (UniProt P46406); assay: Inhibition of rabbit muscle GAPDH at 69 uM
[12] = tested on: Trypanosoma brucei; assay: Inhibition of Trypanosoma brucei GAPDH expressed in Escherichia coli at 278 uM
[13] = target: T1, ATP-dependent 6-phosphofructokinase, muscle type (Oryctolagus cuniculus); assay: Inhibition of rabbit muscle PFK at 690 uM
[14] = target: T4, ATP-dependent 6-phosphofructokinase (Trypanosoma brucei); assay: Inhibition of Trypanosoma brucei PFK expressed in Escherichia coli at 690 uM
[15] = target: T5, Fructose-bisphosphate aldolase A (Oryctolagus cuniculus) (UniProt P00883); assay: Inhibition of rabbit muscle aldolase at 280 uM
T5 sequence (whole entry): T3 sequence (P00883 whole entry)

[16] = tested on: Trypanosoma brucei; assay: Inhibition of Trypanosoma brucei aldolase expressed in Escherichia coli at 140 uM
[17] = target: Glyceraldehyde-3-phosphate dehydrogenase (Oryctolagus cuniculus, UniProt P46406); assay: Inhibition of rabbit muscle GAPDH
Chain of Glyceraldehyde-3-phosphate dehydrogenase (P46406 whole entry): as the sequence (P46406 whole entry, looked up) above

[18] = target: T1, ATP-dependent 6-phosphofructokinase, muscle type (Oryctolagus cuniculus); assay: Inhibition of rabbit muscle PFK at 500 uM
[19] = Inhibition of Trypanosoma brucei aldolase expressed in Escherichia coli
[20] = Selectivity ratio of IC50 for rabbit muscle aldolase to IC50 for Trypanosoma brucei aldolase; type: tissue-based; conditions: Muscle tissue
[21] = Mixed-type reversible inhibition of Trypanosoma brucei GAPDH expressed in Escherichia coli using NAD+ by spectrophotometry analysis
[22] = Mixed-type reversible inhibition of Trypanosoma brucei GAPDH expressed in Escherichia coli at enzyme substrate complex by spectrophotometry analysis
[23] = target: T1, ATP-dependent 6-phosphofructokinase, muscle type (Oryctolagus cuniculus); assay: Inhibition of rabbit muscle PFK at 94 uM

CC1(C)C(=O)CC[C@]2(C)C3Cc4cc5ccccc5n4[C@]3(C)CC[C@@H]12 (stereo partly specified)
EC50 [1]: 18 µM
IC50 [2]: 1050 µM
inhibition [3]: inactive
inhibition [4]: 18%
IC50 [5]: 20 µM
IC50 [6]: 87 µM
inhibition [7]: 8%
Ki [8]: 10 µM

CC1(C)C(=O)CC[C@]2(C)[C@H]3Cc4cc5ccccc5n4[C@]3(C)CC[C@@H]12
Activity [9]: Toxic
Ki/Km [10]: 0.05

Nc1nc(N)nc(Nc2ccc([As]3SCC(CO)S3)cc2)n1 (stereo unspecified) [MELARSOPROL]
EC50 [1]: 0.00395 µM

CC(=O)N1c2ccccc2[C@H]2[C@@H]1C[C@@H]1[C@@]2(C)CC[C@H]2C(C)(C)[C@H](O)CC[C@]12C
EC50 [1]: 32 µM
Activity [9]: Toxic
inhibition [11]: 10%
inhibition [12]: 10%
inhibition [13]: 12%
inhibition [14]: 28%
inhibition [15]: inactive
inhibition [16]: 11%

CC1(C)[C@H](O)CC[C@]2(C)[C@@H]3C[C@@H]4Nc5ccccc5[C@@H]4[C@]3(C)CC[C@@H]12 [POLYVEOLINE]
EC50 [1]: 54 µM
Activity [9]: Toxic
IC50 [17]: 620 µM
IC50 [2]: 110 µM
inhibition [18]: inactive
IC50 [5]: 30 µM
IC50 [6]: 270 µM
IC50 [19]: 80 µM
Ratio IC50 [20]: 3
Ki [21]: 18 µM
Ki [22]: 50 µM

CC(=O)O[C@H]1CC[C@]2(C)[C@H]3Cc4cc5ccccc5n4[C@]3(C)CC[C@H]2C1(C)C
ED50 [1]: inactive
Activity [9]: Toxic
IC50 [17]: 2050 µM
IC50 [2]: 110 µM
inhibition [23]: 16%
IC50 [5]: 170 µM
IC50 [6]: 150 µM
IC50 [19]: 0.5 µM

CC1(C)C(=O)CC[C@@]2(C)[C@H]1CC[C@]1(C)[C@H]2Cc2cc3ccccc3n21 [POLYSIN]
Activity [9]: Toxic
Ki [8]: 9 µM
Ki/Km [10]: 0.05
